Laboratory results published in US20240391862A1, “(1,4,5-TRISUBSTITUTED-1H-PYRAZOL-3-YL)OXY-2-ALKOXY ALKYL ACIDS AND THEIR DERIVATIVES, THEIR SALTS AND THEIR USE AS HERBICIDAL AGENTS” (Bayer AKtiengesellschaft, priority 2021, published 2024).

Experiments:
ABUTH = assay: Post-emergence herbicidal effect, greenhouse pot test; format: in vivo, Abutilon theophrasti; conditions: Abutilon theophrasti, 504 h, visual rating about 3 weeks after treatment, read-out: Post-emergence effect against ABUTH
Summary of the method: (§1)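 Greenhouse pot test: weeds and crops sown in sandy loam, sprayed post-emergence at one-leaf stage (2–3 weeks after sowing) with WP or EC formulations plus 0.5% additive at 600 l/ha water, rates 20–320 g/ha. Visual rating about 3 weeks later versus untreated controls (100% = dead, 0% = as control).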

VIOTR = assay: as above; format: in vivo, Viola tricolor; conditions: Viola tricolor, 504 h, read-out: Post-emergence effect against VIOTR in %
Summary of the method: as §1

ZEAMX = assay: Post-emergence herbicidal effect and crop plant compatibility, greenhouse pot test; format: in vivo, Zea mays; conditions: one-leaf stage, rated visually after about 3 weeks vs untreated controls; for plant injury at 20 g/ha / plant injury at 80 g/ha: Zea mays, 504 h; for plant injury at 20 g/ha: read-out: Post-emergence effect at 20 g/ha against ZEAMX in %; for plant injury at 80 g/ha: read-out: Post-emergence effect at 80 g/ha against ZEAMX in %
Summary of the method: (§2)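 Visual % activity scored roughly 3 weeks post-spray against untreated plants, where 100% means death and 0% equals control. Plants were treated at the one-leaf stage, 2 to 3 weeks after sowing in sandy loam, at 20 to 320 g/ha.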

AMARE = assay: Post-emergence herbicidal effect, greenhouse pot test; format: in vivo, Amaranthus retroflexus; conditions: Amaranthus retroflexus, 504 h, visual rating about 3 weeks after treatment, read-out: Post-emergence effect against AMARE
Summary of the method: as §1

ALOMY = assay: as above; format: in vivo, Alopecurus myosuroides; conditions: Alopecurus myosuroides, 504 h, 320 g/ha, visual rating about 3 weeks after treatment, read-out: Post-emergence effect against ALOMY
Summary of the method: as §1

LOLRI = assay: as above; format: in vivo, Lolium rigidum; conditions: Lolium rigidum, 504 h, 320 g/ha, read-out: Post-emergence effect against LOLRI in %
Summary of the method: as §1

ECHCG = assay: as above; format: in vivo, Echinochloa crus-galli; conditions: Echinochloa crus-galli, 504 h, read-out: Post-emergence effect against ECHCG in %
Summary of the method: as §1

SETVI = assay: as above; format: in vivo, Setaria viridis; conditions: Setaria viridis, 504 h, 320 g/ha, read-out: Post-emergence effect against SETVI in %
Summary of the method: as §1

KCHSC = assay: as above; format: in vivo; conditions: for pest or weed control at 80 g/ha / pest or weed control at 320 g/ha: 504 h, read-out: Post-emergence effect against KCHSC in %
Summary of the method: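 Visual rating of activity against untreated plants (100% = plants died, 0% = no effect), done about 3 weeks after treatment. Compounds applied at 20–320 g/ha as aqueous spray (600 l/ha, 0.5% additive) from WP or EC formulations onto one-leaf-stage plants grown in sandy loam under greenhouse conditions.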

DIGSA = assay: as above; format: in vivo, Digitaria sanguinalis; conditions: Digitaria sanguinalis, 504 h, visual rating about 3 weeks after treatment, read-out: Post-emergence effect against DIGSA
Summary of the method: as §1

PHBPU = assay: as above; format: in vivo, Ipomoea purpurea; conditions: Ipomoea purpurea, 504 h, read-out: Post-emergence effect against PHBPU in %
Summary of the method: as §1

VERPE = assay: as above; format: in vivo, Veronica persica; conditions: Veronica persica, 504 h, read-out: Post-emergence effect against VERPE in %
Summary of the method: as §1

POLCO = assay: as above; format: in vivo, Fallopia convolvulus; conditions: for pest or weed control at 320 g/ha / pest or weed control at 80 g/ha: Fallopia convolvulus, 504 h, read-out: Post-emergence effect against POLCO in %
Summary of the method: as §1

TRZAS = assay: Post-emergence herbicidal effect and crop plant compatibility, greenhouse pot test; format: in vivo, Triticum aestivum; conditions: 20 g/ha, one-leaf stage, rated visually after about 3 weeks vs untreated controls; for percent crop injury (phytotoxicity) to wheat, post-emergence at 20 g/ha: Triticum aestivum, 504 h, read-out: Post-emergence effect at 20 g/ha against TRZAS in %
Summary of the method: as §2

AVEFA = assay: Post-emergence herbicidal effect, greenhouse pot test; format: in vivo, Avena fatua; conditions: visual rating about 3 weeks after treatment
Summary of the method: as §1

[1] = Avena fatua, 504 h, 320 g/ha, read-out: Post-emergence effect against AVEFA

Row | SMILES | pest or weed control at 320 g/ha (ABUTH) [%] | pest or weed control at 80 g/ha (VIOTR) [%] | pest or weed control at 320 g/ha (VIOTR) [%] | plant injury at 20 g/ha (ZEAMX; 20 g/ha) [%] | plant injury at 80 g/ha (ZEAMX; 80 g/ha) [%] | pest or weed control at 320 g/ha (AMARE) [%] | pest or weed control at 320 g/ha (ALOMY) [%] | pest or weed control at 320 g/ha (LOLRI) [%] | pest or weed control at 80 g/ha (ECHCG) [%] | pest or weed control at 320 g/ha (ECHCG) [%] | pest or weed control at 320 g/ha (SETVI) [%] | pest or weed control at 80 g/ha (KCHSC) [%] | pest or weed control at 320 g/ha (KCHSC; 320 g/ha) [%] | pest or weed control at 320 g/ha (DIGSA) [%] | pest or weed control at 320 g/ha (PHBPU) [%] | pest or weed control at 320 g/ha (VERPE) [%] | pest or weed control at 320 g/ha (POLCO; 320 g/ha) [%] | percent crop injury (phytotoxicity) to wheat, post-emergence at 20 g/ha (TRZAS) [%] | pest or weed control at 80 g/ha (ABUTH) [%] | pest or weed control at 320 g/ha (AVEFA; [1]) [%] | further results
1 | CCOC(=O)C(OC)Oc1nn(-c2cnccn2)c(-c2ccc(F)nc2)c1Cl (stereo not drawn) [Example I-46] | 80 | 90 | 90 | 0 | 20 | 80 | 90 | 90 | 80 | 90 | 90 | 80 | 90 | 80 | 90 | 90 | 80 | 0 | – | – | pest or weed control at 80 g/ha (AMARE; 80 g/ha): 80%
2 | CCOC(=O)C(OC)Oc1nn(-c2cnccn2)c(-c2ccc(F)nc2)c1Br (stereo not drawn) [Example I-47] | 90 | 80 | 90 | 0 | 0 | 80 | – | 90 | 90 | 90 | – | 90 | 90 | 80 | 90 | 90 | 80 | 0 | 80 | 80 | pest or weed control at 80 g/ha (PHBPU): 80%; pest or weed control at 80 g/ha (VERPE; 80 g/ha): 80%; pest or weed control at 80 g/ha (POLCO): 80%
3 | CCOC(=O)C(OC)Oc1nn(-c2ncccc2F)c(-c2ccc(F)nc2)c1C(F)(F)F (stereo not drawn) [Example I-55] | 90 | 80 | 90 | 0 | 0 | – | 90 | 90 | 90 | 90 | 80 | 90 | 90 | 90 | 90 | 90 | 90 | 20 | 80 | 90 | pest or weed control at 80 g/ha (AVEFA; Avena fatua, 504 h, 80 g/ha, read-out: Post-emergence effect against AVEFA): 90%; pest or weed control at 80 g/ha (DIGSA; 80 g/ha): 90%; pest or weed control at 20 g/ha (PHBPU; 20 g/ha): 80%; pest or weed control at 80 g/ha (PHBPU): 80%; pest or weed control at 80 g/ha (POLCO): 80%
4 | COC(Oc1nn(-c2ncccc2F)c(-c2ccc(F)nc2)c1C1CC1)C(=O)O (stereo not drawn) [Example I-89] | – | – | – | – | – | – | 90 | 90 | – | – | – | – | – | – | – | – | – | – | – | – | Post-emergence effect at 20 g/ha against ZEAMX in % (ZEAMX; 20 g/ha): 0%; Post-emergence effect at 80 g/ha against ZEAMX in % (ZEAMX; 80 g/ha): 0%; Post-emergence effect against AVEFA (AVEFA; 320 g/ha): 80%; Post-emergence effect against KCHSC in % (KCHSC; 320 g/ha): 90%; Post-emergence effect against POLCO in % (POLCO; 320 g/ha): 90%; Post-emergence effect at 20 g/ha against TRZAS in % (TRZAS): 0%
